Measured values as given in PubChem BioAssay AID256 (DTP/NCI, 2004).
Where “and” joins values, the source holds several entries; their conditions need not be identical. Equal values may be shown once. Inconclusive results and toxic doses are left out.

Test system: CD2F1 mice, L1210 leukemia ip, survival T/C
Assay: NCI In Vivo Anticancer Drug Screen. Data for tumor model L1210 Leukemia (intraperitoneal) in CD2F1 (CDF1) mice
Conditions: higher = longer survival
Summary of the method: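 Tumor-bearing mice (transplanted tumor) were split into treated and vehicle control groups, and the measured endpoint of each treated group was divided by that of its vehicle controls.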

[1] = endpoint: mean survival time, dose: 75.0 mg/kg/injection, schedule: Q01DX001 (ip), vehicle: saline
[2] = endpoint: mean survival time, dose: 150.0 mg/kg/injection, schedule: Q01DX001 (ip), vehicle: saline
[3] = endpoint: mean survival time, dose: 300.0 mg/kg/injection, schedule: Q01DX001 (ip), vehicle: saline
[4] = endpoint: mean survival time, dose: 100.0 mg/kg/injection, schedule: Q01DX009 (ip), vehicle: saline with Tween-80
[5] = endpoint: mean survival time, dose: 200.0 mg/kg/injection, schedule: Q01DX009 (ip), vehicle: saline with Tween-80
[6] = endpoint: mean survival time, dose: 400.0 mg/kg/injection, schedule: Q01DX009 (ip), vehicle: saline with Tween-80
[7] = endpoint: mean survival time, dose: 100.0 mg/kg/injection, schedule: Q01DX009 (ip), vehicle: saline
[8] = endpoint: mean survival time, dose: 100.0 mg/kg/injection, schedule: Q04DX003 (ip), vehicle: saline with Tween-80
[9] = endpoint: mean survival time, dose: 200.0 mg/kg/injection, schedule: Q04DX003 (ip), vehicle: saline with Tween-80
[10] = endpoint: mean survival time, dose: 400.0 mg/kg/injection, schedule: Q04DX003 (ip), vehicle: saline with Tween-80

COc1cc2cc3cc4cc(OC)c(OC)cc4c(C)[n+]3cc2cc1OC (tested in a mixture with another compound)
T/C (endpoint: mean survival time, dose: 12.5 mg/kg/injection, schedule: Q01DX009 (ip), vehicle: suspension in saline): 109 % of control | T/C (endpoint: mean survival time, dose: 25.0 mg/kg/injection, schedule: Q01DX009 (ip), vehicle: suspension in saline): 110 % of control | T/C (endpoint: mean survival time, dose: 50.0 mg/kg/injection, schedule: Q01DX009 (ip), vehicle: suspension in saline): 114 % of control | T/C (endpoint: mean survival time, dose: 100.0 mg/kg/injection, schedule: Q01DX009 (ip), vehicle: suspension in saline): 107 % of control | T/C (endpoint: mean survival time, dose: 200.0 mg/kg/injection, schedule: Q01DX009 (ip), vehicle: suspension in saline): 110 % of control

C[N+]1(C)CC2CCCCC1C2=O (stereo unspecified)
T/C [1]: 111 % of control | T/C [2]: 101 % of control | T/C [3]: 98 % of control

Cc1ccc(N/C=C\c2cc[n+](C)cc2)nc1
T/C [1]: 103 % of control | T/C [2]: 106 % of control | T/C [3]: 105 % of control

CC(=O)OCC1OC(OC(C)=O)C(NC(=O)N(CCOCCCl)N=O)C(OC(C)=O)C1OC(C)=O (stereo unspecified)
T/C (endpoint: mean survival time, dose: 6.25 mg/kg/injection, schedule: Q01DX001 (ip), vehicle: distilled water + Tween-80): 101 % of control | T/C (endpoint: mean survival time, dose: 12.5 mg/kg/injection, schedule: Q01DX001 (ip), vehicle: distilled water + Tween-80): 101 % of control | T/C (endpoint: mean survival time, dose: 25.0 mg/kg/injection, schedule: Q01DX001 (ip), vehicle: distilled water + Tween-80): 93 % of control | T/C (endpoint: mean survival time, dose: 50.0 mg/kg/injection, schedule: Q01DX001 (ip), vehicle: distilled water + Tween-80): 93 % of control | T/C (endpoint: mean survival time, dose: 100.0 mg/kg/injection, schedule: Q01DX001 (ip), vehicle: distilled water + Tween-80): 101 % of control | T/C (endpoint: mean survival time, dose: 200.0 mg/kg/injection, schedule: Q01DX001 (ip), vehicle: distilled water + Tween-80): 97 % of control | T/C (endpoint: mean survival time, dose: 400.0 mg/kg/injection, schedule: Q01DX001 (ip), vehicle: distilled water + Tween-80): 109 % of control

Cc1ccccc1Nc1c2ccccc2nc2ccccc12
T/C (endpoint: mean survival time, dose: 12.5 mg/kg/injection, schedule: Q04DX003 (ip), vehicle: saline with Tween-80): 98 % of control | T/C (endpoint: mean survival time, dose: 25.0 mg/kg/injection, schedule: Q04DX003 (ip), vehicle: saline with Tween-80): 104 % of control | T/C (endpoint: mean survival time, dose: 50.0 mg/kg/injection, schedule: Q04DX003 (ip), vehicle: saline with Tween-80): 87 % of control

CC1OC(n2cnc3c(NC(=O)c4ccccc4)ncnc32)C(O)C2OC12 (stereo unspecified)
T/C (endpoint: median survival time, dose: 12.5 mg/kg/injection, schedule: Q01DX005 (ip), vehicle: alkali diluted with water): 106 % of control | T/C (endpoint: median survival time, dose: 25.0 mg/kg/injection, schedule: Q01DX005 (ip), vehicle: alkali diluted with water): 102 % of control | T/C (endpoint: median survival time, dose: 50.0 mg/kg/injection, schedule: Q01DX005 (ip), vehicle: alkali diluted with water): 108 % of control | T/C (endpoint: median survival time, dose: 100.0 mg/kg/injection, schedule: Q01DX005 (ip), vehicle: alkali diluted with water): 100 % of control | T/C (endpoint: median survival time, dose: 200.0 mg/kg/injection, schedule: Q01DX005 (ip), vehicle: alkali diluted with water): 101 % of control

CCCCCC[C@@H](O)[C@@H]1C2=C(C[C@H]([C@H](O)[C@@H]3CC=CC(=O)O3)CC3=C(C(=O)OC3=O)[C@@H]1O)C(=O)OC2=O
T/C (endpoint: mean survival time, dose: 0.13 mg/kg/injection, schedule: Q01DX001 (ip), vehicle: saline): 97 % of control | T/C (endpoint: mean survival time, dose: 0.25 mg/kg/injection, schedule: Q01DX001 (ip), vehicle: saline): 95 % of control | T/C (endpoint: mean survival time, dose: 0.5 mg/kg/injection, schedule: Q01DX001 (ip), vehicle: saline): 96 % of control | T/C (endpoint: mean survival time, dose: 1.0 mg/kg/injection, schedule: Q01DX001 (ip), vehicle: saline): 96 % of control | T/C (endpoint: mean survival time, dose: 2.0 mg/kg/injection, schedule: Q01DX001 (ip), vehicle: saline): 96 % of control

C(=N\Nc1nc2ccccc2s1)/c1ccnc2ccccc12
T/C (endpoint: mean survival time, dose: 100.0 mg/kg/injection, schedule: Q04DX003 (ip), vehicle: Klucel (hydroxypropylcellulose) (HPC)): 94 % of control | T/C (endpoint: mean survival time, dose: 200.0 mg/kg/injection, schedule: Q04DX003 (ip), vehicle: Klucel (hydroxypropylcellulose) (HPC)): 92 % of control | T/C (endpoint: mean survival time, dose: 400.0 mg/kg/injection, schedule: Q04DX003 (ip), vehicle: Klucel (hydroxypropylcellulose) (HPC)): 94 % of control

O=C(Nc1ccc(Cl)c(Cl)c1)c1cc(Cl)ccc1O
T/C [4]: 102 % of control | T/C [5]: 100 % of control | T/C [6]: 105 % of control

CNC(=O)Oc1cccn(C(=O)NC)c1=O
T/C (endpoint: mean survival time, dose: 12.5 mg/kg/injection, schedule: Q01DX009 (ip), vehicle: saline): 98 % of control and 101 % of control | T/C (endpoint: mean survival time, dose: 25.0 mg/kg/injection, schedule: Q01DX009 (ip), vehicle: saline): 103 % of control and 107 % of control | T/C (endpoint: mean survival time, dose: 50.0 mg/kg/injection, schedule: Q01DX009 (ip), vehicle: saline): 107 % of control and 109 % of control | T/C (endpoint: mean survival time, dose: 75.0 mg/kg/injection, schedule: Q01DX009 (ip), vehicle: Klucel (hydroxypropylcellulose) (HPC)): 112 % of control | T/C (endpoint: mean survival time, dose: 75.0 mg/kg/injection, schedule: Q01DX009 (ip), vehicle: saline): 104 % of control and 109 % of control and 112 % of control | T/C [7]: 115 % of control | T/C (endpoint: mean survival time, dose: 150.0 mg/kg/injection, schedule: Q01DX009 (ip), vehicle: saline): 113 % of control and 110 % of control

COc1cc(NC(=O)Nc2ccccc2C)c(OC)cc1Cl
T/C (endpoint: mean survival time, dose: 100.0 mg/kg/injection, schedule: Q04DX002 (ip), vehicle: saline with Tween-80): 90 % of control | T/C (endpoint: mean survival time, dose: 200.0 mg/kg/injection, schedule: Q04DX002 (ip), vehicle: saline with Tween-80): 90 % of control | T/C (endpoint: mean survival time, dose: 400.0 mg/kg/injection, schedule: Q04DX002 (ip), vehicle: saline with Tween-80): 86 % of control

CNC(=O)NNc1ccccc1
T/C [8]: 102 % of control | T/C [9]: 98 % of control | T/C [10]: 104 % of control

CC(=O)Nc1nnc([N+](=O)[O-])s1
T/C [8]: 95 % of control | T/C [9]: 91 % of control | T/C [10]: 94 % of control

O=[N+]([O-])CC(O)C(O)C(O)C(O)CO (stereo unspecified)
T/C [7]: 107 % of control | T/C (endpoint: mean survival time, dose: 200.0 mg/kg/injection, schedule: Q01DX009 (ip), vehicle: saline): 112 % of control | T/C (endpoint: mean survival time, dose: 400.0 mg/kg/injection, schedule: Q01DX009 (ip), vehicle: saline): 107 % of control

c1ccc(-c2nc3ccc4ccccc4c3nc2-c2ccccc2)cc1
T/C [4]: 94 % of control | T/C [8]: 98 % of control | T/C [5]: 96 % of control | T/C [9]: 92 % of control | T/C [6]: 96 % of control | T/C [10]: 92 % of control

N=C(N)c1cn(C2OC(CO)C(O)C2O)c2ncnc(N)c12 (stereo unspecified)
T/C (endpoint: mean survival time, dose: 0.63 mg/kg/injection, schedule: Q01DX009 (ip), vehicle: saline): 123 % of control | T/C (endpoint: mean survival time, dose: 2.5 mg/kg/injection, schedule: Q01DX009 (ip), vehicle: saline): 124 % of control

Cc1cccc(NC(=O)c2cccc(Cl)c2)c1C
T/C [4]: 91 % of control | T/C [8]: 96 % of control | T/C [5]: 96 % of control | T/C [9]: 96 % of control | T/C [6]: 91 % of control | T/C [10]: 96 % of control

COC1OC(COC(C)=O)C(OC(C)=O)C(NC(=O)N(CCCl)N=O)C1OC(C)=O (stereo unspecified)
T/C (endpoint: mean survival time, dose: 13.0 mg/kg/injection, schedule: Q01DX001 (ip), vehicle: saline with Tween-80): 240 % of control | T/C (endpoint: mean survival time, dose: 20.0 mg/kg/injection, schedule: Q01DX001 (ip), vehicle: saline with Tween-80): 469 % of control | T/C (endpoint: mean survival time, dose: 30.0 mg/kg/injection, schedule: Q01DX001 (ip), vehicle: saline with Tween-80): 535 % of control | T/C (endpoint: mean survival time, dose: 44.0 mg/kg/injection, schedule: Q01DX001 (ip), vehicle: saline with Tween-80): 459 % of control | T/C (endpoint: mean survival time, dose: 67.0 mg/kg/injection, schedule: Q01DX001 (ip), vehicle: saline with Tween-80): 245 % of control

O=C(OC1C(COP(=O)(Oc2ccccc2)Oc2ccccc2)OC(n2nc(SCc3ccccc3)c(=O)[nH]c2=O)C1OC(=O)c1ccccc1)c1ccccc1 (stereo unspecified)
T/C (endpoint: median survival time, dose: 12.5 mg/kg/injection, schedule: Q01DX005 (ip), vehicle: distilled water + Tween-80): 96 % of control | T/C (endpoint: median survival time, dose: 25.0 mg/kg/injection, schedule: Q01DX005 (ip), vehicle: distilled water + Tween-80): 96 % of control | T/C (endpoint: median survival time, dose: 50.0 mg/kg/injection, schedule: Q01DX005 (ip), vehicle: distilled water + Tween-80): 97 % of control | T/C (endpoint: median survival time, dose: 100.0 mg/kg/injection, schedule: Q01DX005 (ip), vehicle: distilled water + Tween-80): 97 % of control | T/C (endpoint: median survival time, dose: 200.0 mg/kg/injection, schedule: Q01DX005 (ip), vehicle: distilled water + Tween-80): 96 % of control

C=C1C(=O)OC2CCCCC3OC3C12 (stereo unspecified)
T/C (endpoint: mean survival time, dose: 25.0 mg/kg/injection, schedule: Q01DX001 (ip), vehicle: saline): 108 % of control | T/C (endpoint: mean survival time, dose: 50.0 mg/kg/injection, schedule: Q01DX001 (ip), vehicle: saline): 96 % of control | T/C (endpoint: mean survival time, dose: 100.0 mg/kg/injection, schedule: Q01DX001 (ip), vehicle: saline): 91 % of control

CC(C)CC(Nc1sc([N+](=O)[O-])cc1[N+](=O)[O-])C(=O)O (stereo unspecified)
T/C (endpoint: mean survival time, dose: 100.0 mg/kg/injection, schedule: Q01DX001 (ip), vehicle: saline with Tween-80): 105 % of control | T/C (endpoint: mean survival time, dose: 200.0 mg/kg/injection, schedule: Q01DX001 (ip), vehicle: saline with Tween-80): 102 % of control | T/C (endpoint: mean survival time, dose: 400.0 mg/kg/injection, schedule: Q01DX001 (ip), vehicle: saline with Tween-80): 107 % of control
